Reference: US20260053794A1, “SOMATOSTATIN RECEPTOR 2 AGONISTS AND USES THEREOF” (Exelixis, Inc., priority 2022, published 2026)

Target: T1, Somatostatin Receptor 2 (SSTR2) (Homo sapiens, UniProt P30874)
T1 construct: expressed in transfected cells
Assay: Biochemical Assay for Activation of Somatostatin Receptor 2 (SSTR2), Cisbio HTRF cAMP assay
Assay type: cell-based
Details: average pEC50; HTRF cAMP assay in stably-transfected cell line expressing SSTR2; cells incubated with compounds for 1-2h
Method: Biochemical Assay for Activation of Somatostatin Receptor 2 (SSTR2)
Agonistic activation of SSTRs leads to an […] production of intracellular cAMP levels. Cisbio's homogeneous time-resolved fluorescence (HTRF) cAMP assay was used to measure cAMP concentration in an high-throughput format. Increase in intracellular cAMP concentrations was measuring using a stably-transfected cell line expressing SSTR2. Test compounds were dissolved in DMSO. Cells were incubated with compounds for 1-2h, and subsequently competitive binding of cAMP produced due to the activation of SSTR2 by the test compounds was measured using the Cisbio cAMP Gs dynamic assay system (Perkin Elmer, Bedford, MA).
The average pEC50 was determined for the test compounds.

T1 sequence (P30874 whole entry, species assumed): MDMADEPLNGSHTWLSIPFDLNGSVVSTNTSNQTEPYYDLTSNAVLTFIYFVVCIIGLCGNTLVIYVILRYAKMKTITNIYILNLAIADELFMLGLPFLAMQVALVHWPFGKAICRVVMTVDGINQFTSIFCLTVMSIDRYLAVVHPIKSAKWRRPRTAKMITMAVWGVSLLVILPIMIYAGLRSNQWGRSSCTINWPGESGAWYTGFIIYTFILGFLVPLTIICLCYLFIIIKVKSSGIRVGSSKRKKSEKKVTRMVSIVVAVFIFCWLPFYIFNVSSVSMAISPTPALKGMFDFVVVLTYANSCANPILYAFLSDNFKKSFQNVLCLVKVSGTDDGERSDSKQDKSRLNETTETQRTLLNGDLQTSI

Structure (SMILES)	EC50
N#Cc1cccc(-c2ccc3ncc(-c4cc(F)cc(F)c4)c(OC4CCCC(N)C4)c3c2)c1O (stereo not shown) [Compound 22]	> 10000 nM
CO[C@@H]1CN(c2c(-c3cc(F)cc(F)c3)cnc3c2nc(-c2cccc(C#N)c2O)n3C)CC[C@H]1N [Compound 23, 3-(7-((3R,4R)-4-amino-3-methoxypiperidin-1-yl)-6-(3,5-difluorophenyl)-3-methyl-3H-imidazo[4,5-b]pyridin-2-yl)-2-hydroxybenzonitrile]	> 10000 nM
CO[C@@H]1CN(c2c(-c3cc(F)cc(F)c3)cnc3c2nc(-c2ccc4[nH]c(=O)[nH]c4c2)n3C)CC[C@H]1N [Compound 25]	> 10000 nM
CO[C@@H]1CN(c2c(-c3cc(C)cc(F)c3)cnc3c2nc(-c2ccc4[nH]c(=O)[nH]c4c2)n3C)CC[C@H]1N [Compound 27]	> 10000 nM
COc1cc(F)cc(-c2cnc3c(nc(-c4cccc(C#N)c4O)n3C)c2N2CC[C@@H](N)[C@H](OC)C2)c1 [Compound 29]	> 10000 nM
COc1cc(F)cc(-c2cnc3c(nc(-c4cc(F)cc(C(N)=O)c4)n3C)c2N2CC[C@@H](N)[C@H](OC)C2)c1 [Compound 30]	1000 nM
COc1cc(F)cc(-c2cnc3c(nc(-c4ccc5[nH]c(=O)[nH]c5c4)n3C)c2N2CC[C@@H](N)[C@H](OC)C2)c1 [Compound 31]	> 10000 nM
COc1cc(F)cc(-c2cnc3c(nc(-c4cc(F)cc(C(N)=O)c4)n3C)c2N2CCC(N)CC2)c1 [Compound 33]	1580 nM
COc1cc(F)cc(-c2cnc3c(nc(-c4cccc(C#N)c4O)n3C)c2N2CCC(N)CC2)c1 [Compound 34]	501 nM
Cc1cc(F)cc(-c2cnc3c(nc(-c4cc(F)cc(C(N)=O)c4)n3C)c2N2CCC(N)CC2)c1 [Compound 35, 3-(7-(4-aminopiperidin-1-yl)-6-(3-fluoro-5-methylphenyl)-3-methyl-3H-imidazo[4,5-b]pyridin-2-yl)-5-fluorobenzamide]	158 nM
Cc1cc(F)cc(-c2cnc3c(nc(-c4ccc5[nH]c(=O)[nH]c5c4)n3C)c2N2CCC(N)CC2)c1 [Compound 36]	> 10000 nM
Cn1c(-c2cc(F)cc(C(N)=O)c2)nc2c(N3CCC(N)CC3)c(-c3cc(F)cc(F)c3)cnc21 [Compound 38]	2000 nM
Cn1c(-c2ccc3[nH]c(=O)[nH]c3c2)nc2c(N3CCC(N)CC3)c(-c3cc(F)cc(F)c3)cnc21 [Compound 39]	> 10000 nM
Cn1c(-c2cccc(C#N)c2O)nc2c(N3CCC(N)CC3)c(-c3cc(F)cc(F)c3)cnc21 [Compound 43]	6310 nM
Cn1c(-c2cccc(Br)c2O)nc2ncc(-c3cc(F)cc(F)c3)c(N3CCC(NC(=O)OC(C)(C)C)CC3)c21 [Compound 44]	> 10000 nM
COc1cc(F)cc(-c2cnc3[nH]c(-c4ccc5[nH]c(=O)[nH]c5c4)nc3c2N2CC[C@@H](N)[C@H](OC)C2)c1 [Compound 49]	> 10000 nM
COc1cc(F)cc(-c2cnc3[nH]c(-c4cccc(C#N)c4O)nc3c2N2CC[C@@H](N)[C@H](OC)C2)c1 [Compound 51]	> 10000 nM
CO[C@@H]1CN(c2c(-c3cc(C)cc(F)c3)cnc3[nH]c(-c4ccc5[nH]c(=O)[nH]c5c4)nc23)CC[C@H]1N [Compound 55]	> 10000 nM
COc1cc(F)cc(-c2cnc3[nH]c(-c4cccc(Br)c4O)nc3c2N2CCC(N)CC2)c1 [Compound 57]	10 nM
NC(=O)c1cc(F)cc(-c2nc3c(N4CCC(N)CC4)c(-c4cc(F)cc(F)c4)cnc3[nH]2)c1 [Compound 65]	3160 nM
NC(=O)c1cccc2c1OCCCNC1CCN(CC1)c1c(-c3cc(F)cc(F)c3)cnc3ccc-2cc13 [Compound 67]	0.794 nM
Fc1cc(F)cc(-c2cnc3ccc4cc3c2N2CCC(CC2)NCCCCOc2cccc-4c2)c1 [Compound 68]	7.94 nM
N#Cc1cccc2c1OCCOCCNC1CCN(CC1)c1c(-c3cc(F)cc(F)c3)cnc3ccc-2cc13 [Compound 70]	0.794 nM
NC(=O)c1cccc2c1OCCCCNC1CCN(CC1)c1c(-c3cc(F)cc(F)c3)cnc3ccc-2cc13 [Compound 75]	2 nM
Cc1cc(F)cc(-c2cnc3ccc4cc3c2N2CCC(CC2)NCCCCOc2ccccc2-4)c1 [Compound 76]	0.0794 nM

More lines, now with the values ahead:

EC50	Structure (SMILES)
100 nM	N[C@H]1CC[C@@H](Oc2c(-c3cc(F)cc(F)c3)cnc3ccc(-c4cc(F)cc(F)c4)cc23)C1 [Compound 13]
12.6 nM	N[C@@H]1CC[C@@H](Oc2c(-c3cc(F)cc(F)c3)cnc3ccc(-c4cc(F)cc(F)c4)cc23)C1 [Compound 14]
12.6 nM	N[C@H]1CC[C@H](Oc2c(-c3cc(F)cc(F)c3)cnc3ccc(-c4cc(F)cc(F)c4)cc23)C1 [Compound 15]
200 nM	N#Cc1cccc(-c2ccc3ncc(-c4cc(F)cc(F)c4)c(O[C@H]4CC[C@@H](N)C4)c3c2)c1O [Compound 16]
12.6 nM	NC1CC(Oc2c(-c3cc(F)cc(F)c3)cnc3ccc(-c4cc(F)cc(F)c4)cc23)C1 (stereo not shown) [Compound 17]
12.6 nM	Cc1cc(F)cc(-c2cnc3ccc(-c4cc(F)cc(C(N)=O)c4)cc3c2O[C@H]2C[C@@H](N)C2)c1 [Compound 18]
1 nM	Cc1cc(F)cc(-c2cnc3ccc(-c4cc(F)cc(C(N)=O)c4)cc3c2O[C@H]2C[C@H](N)C2)c1 [Compound 19]
3980 nM	NCC1CCCCC1Oc1c(-c2cc(F)cc(F)c2)cnc2ccc(-c3cc(F)cc(F)c3)cc12 (stereo not shown) [Compound 20]
20 nM	Cc1cc(F)cc(-c2cnc3ccc(-c4cc(F)cc(C(N)=O)c4)cc3c2OC2CCCC(CN)C2)c1 (stereo not shown) [Compound 21]
> 5010 nM	CO[C@@H]1CN(c2c(-c3cc(F)cc(F)c3)cnc3c2nc(-c2cc(F)cc(C(N)=O)c2)n3C)CC[C@H]1N [Compound 24]
> 10000 nM	COc1cc(F)cc(-c2cnc3c(nc(-c4ccc5[nH]c(=O)[nH]c5c4)n3C)c2N2CCC(N)CC2)c1 [Compound 32]
316 nM	Cc1cc(F)cc(-c2cnc3c(nc(-c4cccc(C#N)c4O)n3C)c2N2CCC(N)CC2)c1 [Compound 37]
> 10000 nM	Cn1c(-c2cccc(Br)c2O)nc2c(N3CCC(NC(=O)OC(C)(C)C)CC3)c(-c3cc(F)cc(F)c3)cnc21 [Compound 40]
158 nM	Cn1c(-c2cccc(Br)c2O)nc2c(N3CCC(N)CC3)c(-c3cc(F)cc(F)c3)cnc21 [Compound 41]
> 10000 nM	Cn1c(-c2cccc(C#N)c2O)nc2c(N3CCC(NC(=O)OC(C)(C)C)CC3)c(-c3cc(F)cc(F)c3)cnc21 [Compound 42]
398 nM	Cn1c(-c2cccc(Br)c2O)nc2ncc(-c3cc(F)cc(F)c3)c(N3CCC(N)CC3)c21 [Compound 45]
> 10000 nM	CO[C@@H]1CN(c2c(-c3cc(F)cc(F)c3)cnc3[nH]c(-c4ccc5[nH]c(=O)[nH]c5c4)nc23)CC[C@H]1N [Compound 46, 5-(7-((3R,4R)-4-amino-3-methoxypiperidin-1-yl)-6-(3,5-difluorophenyl)-3H-imidazo[4,5-b]pyridin-2-yl)-1,3-dihydro-2H-benzo[d]imidazol-2-one]
1000 nM	CO[C@@H]1CN(c2c(-c3cc(F)cc(F)c3)cnc3[nH]c(-c4cc(F)cc(C(N)=O)c4)nc23)CC[C@H]1N [Compound 47]

EC50	Structure (SMILES)
501 nM	CO[C@@H]1CN(c2c(-c3cc(F)cc(F)c3)cnc3[nH]c(-c4cccc(C#N)c4O)nc23)CC[C@H]1N [Compound 48]
> 10000 nM	COc1cc(F)cc(-c2cnc3[nH]c(-c4cc(F)cc(C(N)=O)c4)nc3c2N2CC[C@@H](N)[C@H](OC)C2)c1 [Compound 50]
> 10000 nM	COc1cc(F)cc(-c2cnc3[nH]c(-c4cc(F)cc(C(=O)O)c4)nc3c2N2CC[C@@H](N)[C@H](OC)C2)c1 [Compound 52]
1000 nM	CO[C@@H]1CN(c2c(-c3cc(C)cc(F)c3)cnc3[nH]c(-c4cc(F)cc(C(N)=O)c4)nc23)CC[C@H]1N [Compound 53]
2510 nM	CO[C@@H]1CN(c2c(-c3cc(C)cc(F)c3)cnc3[nH]c(-c4cccc(C#N)c4O)nc23)CC[C@H]1N [Compound 54]
1580 nM	COc1cc(F)cc(-c2cnc3[nH]c(-c4ccc5[nH]c(=O)[nH]c5c4)nc3c2N2CCC(N)CC2)c1 [Compound 56]
501 nM	COc1cc(F)cc(-c2cnc3[nH]c(-c4cc(F)cc(C(N)=O)c4)nc3c2N2CCC(N)CC2)c1 [Compound 58]
631 nM	COc1cc(F)cc(-c2cnc3[nH]c(-c4cccc(C#N)c4O)nc3c2N2CCC(N)CC2)c1 [Compound 59]
3.16 nM	Cc1cc(F)cc(-c2cnc3[nH]c(-c4cccc(Br)c4O)nc3c2N2CCC(N)CC2)c1 [Compound 60]
50.1 nM	Cc1cc(F)cc(-c2cnc3[nH]c(-c4cc(F)cc(C(N)=O)c4)nc3c2N2CCC(N)CC2)c1 [Compound 61]
631 nM	Cc1cc(F)cc(-c2cnc3[nH]c(-c4ccc5[nH]c(=O)[nH]c5c4)nc3c2N2CCC(N)CC2)c1 [Compound 62]
> 10000 nM	CC(C)(C)OC(=O)NC1CCN(c2c(-c3cc(F)cc(F)c3)cnc3nc(-c4cccc(Br)c4O)[nH]c23)CC1 [Compound 63]
31.6 nM	NC1CCN(c2c(-c3cc(F)cc(F)c3)cnc3nc(-c4cccc(Br)c4O)[nH]c23)CC1 [Compound 64]
1.26 nM	Fc1cc(F)cc(-c2cnc3ccc4cc3c2N2CCC(CC2)NCCCCCOc2cccc-4c2)c1 [Compound 69]
0.158 nM	N#Cc1cccc2c1OCCCCCNC1CCN(CC1)c1c(-c3cc(F)cc(F)c3)cnc3ccc-2cc13 [Compound 71]
0.0251 nM	Cc1cc(F)cc(-c2cnc3ccc4cc3c2N2CCC(CC2)NCCCCOc2c(C#N)cccc2-4)c1 [Compound 73]
0.251 nM	Cc1cc(F)cc(-c2cnc3ccc4cc3c2N2CCC(CC2)NCCCCOc2c(C(N)=O)cccc2-4)c1 [Compound 74]
6.31 nM	N#Cc1cccc2c1OCCO[C@H]1CN(CC[C@@H]1N)c1c(-c3cc(F)cc(F)c3)cnc3ccc-2cc13 [Compound 77]
